According to article PMC9029529, “Distinct Mechanisms of Cytotoxicity in Novel Nitrogenous Heterocycles: Future Directions for a New Anti-Cancer Agent” (Molecules, 2022):

Legend:
HL60 cells = assay: High-content imaging (HCI) cell health / apoptosis assay; assay type: cell-based, human; details: for viability at 31.25 µM / viability at 62.5 µM / viability at 125 µM: Homo sapiens, HL-60, HCI Cell Health, read-out: HL60 Cell Line % Cell Viability; for viability at 31.25 µM / viability at 62.5 µM / viability at 125 µM / apoptosis in HL60 cells (HCI): 48 h; for apoptosis in HL60 cells (HCI): increasing concentrations 31.25-125 µM, compared with control
Procedure: Figure 5A depicts a dose-dependent increase in cell shrinkage/condensing, and necrotic cells are also visible. […] Furthermore, even at the lowest concentration, 31.25 µM, compound 9 was more efficacious than compound 8 since there appeared to be fewer healthy cells (blue and green staining) and a greater level of shrinkage. Moreover, Figure 5B depicts the HCI Cell Health determined by means of digital analysis, displaying the HL60 percentage cell viability as a function of increasing drug concentrations.
Figure 5 HCI-based apoptosis assay. (A) HL60 cells were treated with three concentrations (31.25 µM, 62.5 µM, and 125 µM) of compounds # 8 (a–c), # 9 (d–f), and PBS for the negative control (g) for 48 h. The nucleus (blue) was stained with HOECHST 33342, the cytoplasm (Green) was stained with Calcein AM, and dead cells (Red) were stained with Propidium Iodide (PI). […] (B) HCI Cell Health Digital Analysis MetaXpress software generated the graph quantifying the cell viability, seen in B, as a percentage of HL60 cells treated with the compounds. […] TEXT PRINTED IN THE PICTURE: (B) Compound # 8: HL60 Cell Line % Cell Viability: 64.5 (125μM); HL60 Cell Line % Cell Viability: 87.4 (62.5μM); HL60 Cell Line % Cell Viability: 94.6 (31.25μM) | (B) Compound # 9: HL60 Cell Line % Cell Viability: 45.7 (125μM); HL60 Cell Line % Cell Viability: 56.9 (62.5μM); HL60 Cell Line % Cell Viability: 79.9 (31.25μM) | (B) Control: HL60 Cell Line % Cell Viability: 98.5
HL60 cells were seeded in a 96-well plate at a density of 20,000 cells per well. The cells were treated with compounds 8 and 9 and negative control (PBS) for 48 h. Three graded concentrations were used for the treatment, 31.25 µM, 62.5 µM, and 125 µM. After the treatment, the cells were stained with Calcein AM (2 µg/mL), HOECHST33342 (2.5 µg/mL), and Propidium Iodide (2.5 µg/mL) for 45 min at 37 °C and 5% CO2. Plates were imaged on a Molecular Devices ImageXpress® Microsystem, and the acquired image data were analyzed using MetaXpress® software, Molecular Devices, Downingtown, PA, USA. The Cell Health module available in the MetaXpress software was used to measure the percentage viability of live and dead cells. Experiments were performed in triplicates.

HCT8 cells = assay: MTT assay, HCT8; assay type: cell-based; details: Homo sapiens, HCT-8, 24 h, 0 to 250 μM, read-out: IC50 Colorectal Cancer (HCT8)
Procedure: To establish the cytotoxic effect of the nitrogenous derivatives, cells were treated with various concentrations of the drugs ranging from 0 to 250 μM. Following a 24 h incubation period, cell viability was assessed using the MTT assay. Mitoxantrone served as a positive control to evaluate growth inhibition. Since heterogeneity is a hallmark of cancer, the study included cell lines with diverse genomic and proteomic profiles. […] In this regard, further optimization would be required to increase the selective therapeutic potential of compound 9. To determine whether the anti-proliferative effect of the nitrogen derivatives could be translated to other malignancies, we tested the cytotoxic effect on the HCT8 (colorectal cancer) cell line. HCT8 is an adenocarcinoma driven by the Kirsten Rat Sarcoma (KRAS) mutation, unlike MCF-10A [28].
The MTT assay was utilized to examine the imidazole derivatives’ anti-proliferative activity against MCF-10A, MDA-MB-231, and HCT8 cell lines, purchased from ATCC, USA [47]. Firstly, 5 × 10^3 cells/well were seeded in a 96-well plate in 100 μL of growth medium and were subsequently cultured overnight with various concentrations of each compound ranging from 0 to 250 µM [48]. The media was aspirated, and 50 µL of serum-free media and 50 µL of MTT solution were added to each well. Next, cells were incubated at 37 °C for 3 h, then 150 µL of MTT solvent was added into each well. After that, plates were wrapped in foil and agitated for 15 min on an orbital shaker. Finally, the absorbance was measured within 1 h at OD590 nm. Half-maximal inhibitory concentration IC50 values (μM) were calculated for each compound from the dose–response curve. Experiments were performed in triplicates.

MDA-MB-231 cells = assay: ApoTox-Glo triplex assay (caspase 3/7); assay type: cell-based, human; details: MDA-MB-231, 24 h, various concentrations
Excerpt: The ApoTox-Glo® triplex assay was utilized to further evaluate the effect of compound 9 on the MDA-MB-231 cancer cell viability, cytotoxicity, and apoptosis. This assay employs a luminogenic peptide substrate for caspase 3/7 to measure caspase activity, which is used as a marker for apoptosis within the cells. […] However, since this assay was time-dependent, the level of cytotoxicity (Figure 7B) determined, in this case, was not a true representative of the compound’s cytotoxic potential; it is reasonable to say that at the endpoint of apoptosis (Figure 7C), a heightened level of cytotoxicity would be observed.
The Promega ApoTox-Glo® triplex assay was conducted as described by the manufacturer. Briefly, the cells were incubated at 37 °C for 12 h and then treated for 24 h with various concentrations of compound 9 [29, 30]. Next, 100 µL of the Viability and Cytotoxicity Reagent was added to each well and briefly mixed on an orbital shaker. Plates were incubated at 37 °C for 30 min, and the fluorescence was measured at the following two-wavelength sets—400Ex/505Em (Viability) and 485Ex/520 Em (Cytotoxicity)—using the Envision plate reader (Perkin Elmer). […] Finally, to determine the level of apoptosis, the luminescence associated with caspase 3/7 activation was measured using an Envision plate reader (Perkin Elmer).

Row | Compound | viability at 31.25 µM (HL60 cells) [%] | viability at 62.5 µM (HL60 cells) [%] | viability at 125 µM (HL60 cells) [%] | apoptosis in HL60 cells (HCI) (HL60 cells) | IC50 (HCT8 cells) [µM] | cytotoxic efficacy (HL60 cells; 31.25 µM, HL60, 48 h) | cytotoxicity (HL60 cells; 62.5 µM, HL60, 48 h) | caspase 3/7-mediated apoptosis (MDA-MB-231 cells)
1 | O=C1/C(=C/c2ccccc2)N=C(c2ccccc2)N1Nc1ccc([N+](=O)[O-])cc1[N+](=O)[O-] [Compound 8] | 94.6 | 87.4 | 64.5 | led to apoptosis | 29.5 | – | – | –
2 | COc1cccc(/C=C2\N=C(c3ccccc3)N(Nc3ccc([N+](=O)[O-])cc3[N+](=O)[O-])C2=O)c1 [Compound 9] | 79.9 | 56.9 | 45.7 | led to apoptosis | 13.2 | approximately 20% | approximately 54% | induced caspase 3-/7-mediated apoptosis in a dose-dependent manner
